Experimental data published in patent US9890133B2 (priority 2011, dated 2018).
≈ marks a conversion by molar mass, not a printed value.

Assays:
in vitro = settings: human
Poliovirus 3 = assay: microbe, parasite or virus in culture; type: cell-based; settings: Enterovirus C, read-out: Poliovirus3 EC50

| SMILES | melting point [°C] | CC50 (in vitro; Picorana CC50) [µg/mL] | CC50 (in vitro) [µg/mL] | EC50 (Poliovirus 3) [µg/mL] |
| --- | --- | --- | --- | --- |
| CCOC(=O)N[C@@]12C(=O)c3ccccc3[C@]1(O)Oc1cc(C(C)C)ccc12 | 115 to 118 |  |  |  |
| CC(=O)O[C@@]12Oc3cc(C(C)C)ccc3[C@]1(OC(C)=O)C(=O)c1c(NS(C)(=O)=O)cccc12 (stereo in doubt) [Example 54, acetic acid 4b-acetoxy-7-isopropyl-1-methanesulfonylamino-10-oxo-4b,10-dihydro-5-oxa-indeno[2,1-a]inden-9b-yl ester] | 96 to 100 | > 50 |  |  |
| Cc1ccc2c(c1)OC1(O)c3ccccc3C(=O)C21O (stereo not drawn) [Example 1, 4b,9b-Dihydroxy-7-methyl-4bH-benzo[d]indeno[1,2-b]furan-10(9bH)-one] | 145 to 147 | > 50 |  |  |
| CC(=O)OC12Oc3cc(C)ccc3C1(OC(C)=O)C(=O)c1ccccc12 (stereo not drawn) [Example 2, 7-Methyl-10-oxo-9b,10-dihydro-4bH-benzo[d]indeno[1,2-b]furane-4b,9b-diyl diacetate] | 167 to 169 | > 50 |  |  |
| CCOC(=O)Cc1cc(OC)c2c(c1)C1(O)C(=O)c3ccccc3C1(O)O2 (stereo not drawn) [Example 3, Ethyl 2-(4b,9b-dihydroxy-6-methoxy-10-oxo-9b,10-dihydro-4bH-benzo[d]indeno[1,2-b]furane-8-yl)acetate] | 133 to 136 | > 50 |  |  |
| Cc1cc2c(cc1C)C1(O)C(=O)c3ccccc3C1(O)O2 (stereo not drawn) [Example 4, 4b,9b-dihydroxy-7,8-dimethyl-4bH-benzo[d]indeno[1,2-b]furan-10(9bH)-one] | 198 to 200 | > 50 |  |  |
| COc1ccc2c(c1)OC1(O)c3ccccc3C(=O)C21O (stereo not drawn) [Example 7, 4b,9b-Dihydroxy-7-methoxy-4bH-benzo[d]indeno[1,2-b]furan-10(9bH)-one] | 98 to 100 | > 50 |  |  |
| O=C1c2ccccc2C2(O)Oc3c(ccc(Cl)c3Cl)C12O (stereo not drawn) [Example 8, 6,7-Dichloro-4b,9b-dihydroxy-4bH-benzo[d]indeno[1,2-b]furan-10(9bH)-one] | 142 to 150 | 44.1 (≈ 136 µM) |  |  |
| CCc1ccc2c(c1)OC1(O)c3ccccc3C(=O)C21O (stereo not drawn) [Example 9, 7-Ethyl-4b,9b-dihydroxy-4bH-benzo[d]indeno[1,2-b]furan-10(9bH)-one] | 168 to 169 | 18 (≈ 63.8 µM) |  |  |
| CC(=O)OC12Oc3cc(C(C)C)ccc3C1(OC(C)=O)C(=O)c1ccccc12 (stereo not drawn) [Example 11, 7-Isopropyl-10-oxo-9b,10-dihydro-4bH-benzo[d]indeno[1,2-b]furane-4b,9b-diyl diacetate] | 138 to 140 | 16.2 |  |  |
| COc1ccc2c(c1)C1(O)C(=O)c3ccccc3C1(O)O2 (stereo not drawn) [Example 12, 4b,9b-Dihydroxy-8-methoxy-4bH-benzo[d]indeno[1,2-b]furan-10(9bH)-one] | 186 to 189 | > 50 |  |  |
| O=C1c2ccccc2C2(O)Oc3c(-c4ccccc4)cccc3C12O (stereo not drawn) [Example 13, 4b,9b-Dihydroxy-6-phenyl-4bH-benzo[d]indeno[1,2-b]furan-10(9bH)-one] | 182 to 183 | 8.08 (≈ 24.5 µM) |  |  |
| O=C1c2ccccc2C2(O)Oc3ccc([N+](=O)[O-])cc3C12O (stereo not drawn) [Example 14, 4b,9b-Dihydroxy-8-nitro-4bH-benzo[d]indeno[1,2-b]furan-10(9bH)-one] | 206 to 207 | > 50 |  |  |
| O=C1c2ccccc2C2(O)Oc3cc4ccccc4cc3C12O (stereo not drawn) [Example 15, 4b,11b-Dihydroxy-4bH-indeno[1,2-b]naphtho[2,3-d]furan-12(11 bH)-one] | 220 to 221 | 8.57 (≈ 28.2 µM) |  |  |
| O=C1c2ccccc2C2(O)Oc3c(ccc4ccccc34)C12O (stereo not drawn) [Example 16, 6b,11b-Dihydroxy-6bH-indeno[1,2-b]naphtho[2,1-d]furan-7(11 bH)-one] | 216 to 218 | 7.82 (≈ 25.7 µM) |  |  |
| CCCc1ccc2c(c1)C1(O)C(=O)c3ccccc3C1(O)O2 (stereo not drawn) [Example 17, 4b,9b-Dihydroxy-8-propyl-4bH-benzo[d]indeno[1,2-b]furan-10(9bH)-one] | 126 to 127 | 7.85 (≈ 26.5 µM) |  |  |
| CCc1ccc2c(c1)C1(O)C(=O)c3ccccc3C1(O)O2 (stereo not drawn) [Example 18, 8-Ethyl-4b,9b-dihydroxy-4bH-benzo[d]indeno[1,2-b]furan-10(9bH)-one] | 157 to 159 | 37.5 (≈ 133 µM) |  |  |
| CCC(C)c1ccc2c(c1)C1(O)C(=O)c3ccccc3C1(O)O2 (stereo not drawn) [Example 19, 8-sec-Butyl-4b,9b-dihydroxy-4bH-benzo[d]indeno[1,2-b]furan-10(9bH)-one] | 134 to 136 | 8.34 (≈ 26.9 µM) |  |  |

| SMILES | melting point [°C] | CC50 (in vitro; Picorana CC50) [µg/mL] | CC50 (in vitro) [µg/mL] | EC50 (Poliovirus 3) [µg/mL] |
| --- | --- | --- | --- | --- |
| CC(C)(C)c1ccc2c(c1)C1(O)C(=O)c3ccccc3C1(O)O2 (stereo not drawn) [Example 20, 8-tert-Butyl-4b,9b-dihydroxy-4bH-benzo[d]indeno[1,2-b]furan-10(9bH)-one] | 187 to 188 | 7.93 (≈ 25.6 µM) |  |  |
| CC(C)(C)c1cccc2c1OC1(O)c3ccccc3C(=O)C21O (stereo not drawn) [Example 21, 6-tert-Butyl-4b,9b-dihydroxy-4bH-benzo[d]indeno[1,2-b]furan-10(9bH)-one] | 148 to 152 | 32.1 (≈ 103 µM) |  |  |
| Cc1cc2c(c(C)c1C)C1(O)C(=O)c3ccccc3C1(O)O2 (stereo not drawn) [Example 22, 4b,9b-Dihydroxy-7,8,9-trimethyl-4bH-benzo[d]indeno[1,2-b]furan-10(9bH)-one] | 212 to 214 | 8.01 (≈ 27 µM) |  |  |
| CCC(C)(C)c1ccc2c(c1)C1(O)C(=O)c3ccccc3C1(O)O2 (stereo not drawn) [Example 23, 4b,9b-Dihydroxy-8-tert-pentyl-4bH-benzo[d]indeno[1,2-b]furan-10(9bH)-one] | 175 to 176 | 9.3 (≈ 28.7 µM) |  |  |
| CC(C)(C)c1cc(C(C)(C)C)c2c(c1)C1(O)C(=O)c3ccccc3C1(O)O2 (stereo not drawn) [Example 24, 6,8-di-tert-Butyl-4b,9b-dihydroxy-4bH-benzo[d]indeno[1,2-b]furan-10(9bH)-one] | 200 to 203 | 8.8 (≈ 24 µM) |  |  |
| CC(=O)OC12Oc3c(C(C)(C)C)cc(C(C)(C)C)cc3C1(OC(C)=O)C(=O)c1ccccc12 (stereo not drawn) [Example 25, 6,8-di-tert-Butyl-10-oxo-9b,10-dihydro-4bH-benzo[d]indeno[1,2-b]furane-4b,9b-diyl diacetate] | 242 to 247 | > 50 |  |  |
| CCCCCCCCCc1ccc2c(c1)C1(O)C(=O)c3ccccc3C1(O)O2 (stereo not drawn) [Example 26, 4b,9b-Dihydroxy-8-nonyl-4bH-benzo[d]indeno[1,2-b]furan-10(9bH)-one] | 108 to 110 | < 4 |  |  |
| CCCCCCCCCCCCCCCc1ccc2c(c1)C1(O)C(=O)c3ccccc3C1(O)O2 (stereo not drawn) [Example 27, 4b,9b-Dihydroxy-8-pentadecyl-4bH-benzo[d]indeno[1,2-b]furan-10(9bH)-one] | 105 to 110 | 43.9 (≈ 94.5 µM) |  |  |
| CCC(C)(C)c1cc(C(C)(C)CC)c2c(c1)C1(O)C(=O)c3ccccc3C1(O)O2 (stereo not drawn) [Example 28, 6,8-Bis-(1,1-dimethyl-propyl)-4b,9b-dihydroxy-4b,9b-dihydro-5-oxa-indeno[2,1-a]inden-10-one] | 195 to 222 | 9.2 (≈ 23.3 µM) |  |  |
| CC(C)OC(=O)Nc1cccc2c1C(=O)C1(O)c3ccc(C(C)C)cc3OC21O (stereo not drawn) [Example 29, Isopropyl 4b,9b-dihydroxy-7-isopropyl-10-oxo-9b,10-dihydro-4bH-benzo[d]indeno[1,2-b]furan-1-ylcarbamate] | 200 to 202 | 7.49 (≈ 18.8 µM) |  |  |
| O=C1c2ccccc2C2(O)Oc3c(ccc4c3CCCC4)C12O (stereo not drawn) [Example 31, 6b,11b-Dihydroxy-1,2,3,4,6b,11b-hexahydro-12-oxa-benzo[4,5]pentaleno[2,1-a]naphthalen-7-one] | 252 to 254 | 8.9 (≈ 28.9 µM) |  |  |
| COc1ccc2c(c1)C(=O)C1(O)c3ccc(C(C)C)cc3OC21O (stereo not drawn) [Example 32, 4b,9b-Dihydroxy-7-isopropyl-2-methoxy-4b,9b-dihydro-5-oxa-indeno[2,1-a]inden-10-one] | 98 to 102 | 8.1 (≈ 24.8 µM) |  |  |
| CC(C)c1ccc2c(c1)OC1(OC(=O)C(C)(C)C)c3ccccc3C(=O)C21OC(=O)C(C)(C)C (stereo not drawn) [Example 33, 7-Isopropyl-10-oxo-9b,10-dihydro-4bH-benzo[d]indeno[1,2-b]furan-4b,9b-diyl bis(2,2-dimethylpropanoate)] | 153 to 157 | > 50 |  |  |
| CC(C)c1ccc2c(c1)OC1(O)c3cccc(N)c3C(=O)C21NC(=O)c1cn2cccnc2n1 (stereo not drawn) [Example 285, N-(1-Amino-4b-hydroxy-7-isopropyl-10-oxo-9b,10-dihydro-4bH-indeno[1,2-b]benzofuran-9b-yl)imidazo[1,2-a]pyrimidine-2-carboxamide] |  |  | > 10 | < 0.01 |
| CC(C)c1ccc2c(c1)OC1(O)c3cccc(N)c3C(=O)C21NC(=O)c1cc2ccccc2c(=O)[nH]1 (stereo not drawn) [Example 286, N-(1-Amino-4b-hydroxy-7-isopropyl-10-oxo-9b,10-dihydro-4bH-indeno[1,2-b]benzofuran-9b-yl)-1-oxo-1,2-dihydroisoquinoline-3-carboxamide] |  | 4.28 (≈ 8.89 µM) | 4.04 (≈ 8.39 µM) | < 0.01 |
| Cc1nc(C(=O)NC23C(=O)c4c(N)cccc4C2(O)Oc2cc(C(C)C)ccc23)c2ccccn12 (stereo not drawn) [Example 287, N-(1-Amino-4b-hydroxy-7-isopropyl-10-oxo-9b,10-dihydro-4bH-benzo[d]indeno[1,2-b]furan-9b-yl)-3-methylimidazo[1,5-a]pyridine-1-carboxamide] |  | 7.01 (≈ 15 µM) | > 10 | 0.036 (≈ 0.0768 µM) |
| CC(C)c1ccc2c(c1)OC1(O)c3cccc(N)c3C(=O)C21NC(=O)c1nc2ccccc2[nH]1 (stereo not drawn) [Example 290, N-(1-Amino-4b-hydroxy-7-isopropyl-10-oxo-9b,10-dihydro-4bH-indeno[1,2-b]benzofuran-9b-yl)-1H-benzo[d]imidazole-2-carboxamide] |  | 4.32 (≈ 9.51 µM) | 4.51 (≈ 9.92 µM) | 0.032 (≈ 0.0704 µM) |
| CC(C)c1ccc2c(c1)OC1(O)c3cccc(N)c3C(=O)C21NC(=O)c1nc2cc(F)ccc2[nH]1 (stereo not drawn) [Example 291, N-(1-Amino-4b-hydroxy-7-isopropyl-10-oxo-9b,10-dihydro-4bH-indeno[1,2-b]benzofuran-9b-yl)-5-fluoro-1H-benzo[d]imidazole-2-carboxamide] |  | 4.43 (≈ 9.38 µM) | 4.51 (≈ 9.55 µM) | 0.036 (≈ 0.0762 µM) |
